Key:
Type in all cases: cell-based
[1] = test system: Bacillus megaterium strain ATCC 15117; test: AICA production/secretion in fermentation with thio-phosphate
Experimental: Bacillus megaterium was grown using a modified minimal media. In particular, the media contained: glucose, 60 g/L; KCL 1 g/L; MgSO4 0.4 g/L; peptone, 2 g/L; adenine, 0.25 g/L; NH4CI 8 g/L, urea, 3 g/L, calcium chloride, 0.5 g/L; as well as ferrous sulfate and manganese sulfate at 0.005 g/L. Thio-phosphate was added at levels between 2-6 g/L. For controls NaH2PO4 was add at 1 g/L.
Bacillus megaterium strain ATCC 15117 (U.S. Pat. No. 3,238,110 & 3,748,232) was used to examine the increased production of AICA using thio-phosphate. Cells were cultured at 26-30° C. for 4 days with 4 g/L of thio-phosphate or normal phosphate (1 g/L). […] The cells were pelleted, and the supernatant was acidified to pH 2 to help remove unwanted amino acids. The samples were then diluted with one volume of water and bound to activated charcoal with shaking for 2 hrs. (2 grams/20 ml) at room temp. The charcoal was collected on a filter with filtration and washed with 0.01 N HCl. AICA was then eluted with a solution of ethanol/ammonium hydroxide/water at a 1:1:2 ratio using a volume equivalent to the original supernatant. The samples were then separated and analyzed on Whatman chromatography paper using a solvent mixture of 50% butanol, 15% ethanol, and 35% water. The results indicated a ˜2× fold increase AICA per volume of cells.
Histidine and tryptophan were added to fermentation reactions to enhance AICA yield by blocking the endogenous synthesis of these amino acids. […] Fermentation reactions were typically initiated with 1.5 ml of overnight growth in nutrient broth which was then diluted into 50 ml of the reaction media. […] Despite the high activity, the growth of these cells was inhibited, almost in parallel with the amount of AICA secreted.

[2] = test system: E. coli K12 and JM109 strains; test: Morphological changes by bright field microscopy; details: K12, semi-synthetic media
E coli K12 bacteria [3] = test: Agilent analyzer profile of total RNA from control and thiophosphate treated cultures
Experimental: (§1) E coli K12 bacteria were grown in high citrate minimal media with 5.4 g/L of thiophosphate or 2.4 g/L of Na2HPO4 for up to 12 hrs. The use of high citrate media was chosen to help lower the total amount of thiophosphate needed for growth when compared to regular M9 media (1). The media is prepared as follows: thiophosphate, 5.4 g/L; KCL 1.5 g/L; (NH4)2SO4, 2 g/L; sodium citrate 2H2O, 10 g/L. Adjust the pH to 7.5 and sterile filter the solution. Then add the following: MgSO4-7H2O, 0.2 g/L (sterilized separately as a conc. solution); glucose, 2 g/L sterilized separately by filtration). Glucose can also be sterilized by autoclaving separately. CaCl2 (11 mg/L) is also be added as needed.
Total RNA was isolated using Bioline's ISOLATE II RNA mini kit. […] The rRNA ratio (23s/16s) was at least 1.6. Note small RNAs like SS RNA were not retained under the conditions used. For rRNA depleted preparations, Ribominus (Invitrogen) was then used to deplete 23S and 16S rRNA. The ribosomal depleted RNA was then concentrated with the kit's concentration module prior to gel analysis.
To further examine this idea, an Agilent analyzer was used to analyze the profiles of total RNA from control cultures and thiophosphate treated cultures (FIG. 1). It was evident that in E. coli, there was an increase in the non-ribosomal fraction, particularly between the […] and 23S ribosomal RNAs, which was even more evident in ribosomal RNA depleted samples (FIG. 1). Quantitative analysis indicated the fraction of 16S and 23S rRNA in the profile of total RNA was depleted in TP cultures relative to controls. […] This corresponds to a reduction of 8.8%. To estimate the fold increase in mRNA that could account for such a change, one needs to know the % of total RNA that is mRNA.

E coli K12 bacteria [4] = test: Microarray analysis (Affymetrix E. coli Genome 2.0)
Experimental: as §1
Both Microarray and RNA seq analysis was performed. Total RNA was used for both studies. For microarray studies, raw Affymetrix CEL files (E. coli Genome 2.0) were normalized to produce probeset-level expression values for all probesets with Expression Console (version 1.4.1.46), using the Robust Multiarray Average (RMA) and Detection Above BackGround (DABG) (Irizarry R. A et al. 2003, Biostatistics 4(2): 249-64. doi:10.1093/biostatistics/4.2.249). The analysis was limited to 10,112 E. coli probesets interrogated by the array. Fold changes were computed using the R environment for statistical computing (version 2.15.1) by Boston University Microarray and Sequencing (CTSA grant #1UL1TR001430).

[5] = 4 g/L thio-phosphate vs normal phosphate
[6] = twice as many starter cells, 50 mg each of his and trp
[7] = microarray (value outside parentheses)

## OP(O)(O)=S [thio-phosphate]
[1]; 100 mg of histidine and tryptophan each per liter
  effect on cells by day 4: cell lysis
[1]; 4 g/L thio-phosphate
  growth recovery by day 4: 60-100 % of controls
[1]; [5]
  growth after 24 hrs: the same
  growth recovered by the third day: normal or 60% of normal levels
[1]; 4 g/L thio-phosphate vs normal phosphate (1 g/L), 26-30° C., 4 days
  fold increase AICA per volume of cells: ~2 × fold
[1]; per cell mass basis compared to normal phosphate containing culture media
  AICA levels increased: 2 ×
[1]; [6]
  cell specific yield of AICA: 5-6 × fold
  growth of cells: inhibited
[2]
  time by which filaments were detected: ≤ 8 h
  time by which paired bacteria could be seen: ≤ 2 h
E coli K12 bacteria [3]
  midpoint of the non-ribosomal RNA peak: ~2,000 NT
  reduction of 16S and 23S rRNA fraction relative to controls: 8.8%
E coli K12 bacteria [3]; assuming mRNA is normally 2% of the total
  fold increase in mRNA or non-ribosomal RNA relative to ribosomal RNA: 5.5 × fold
E coli K12 bacteria [3]; average of two replicates
  16S and 23S rRNA as fraction of total RNA: 42.5%
E coli K12 bacteria [4]; half-lives less than or equal to 1.4 minutes
  average fold change of 19 genes with unstable mRNAs: 1.0+/−2.8
E coli K12 bacteria [4]; microarray
  Dxs transcript fold enhancement: 2.5 × fold
  FabB transcript elevation: 3 ×
  TesA transcript elevation: 4 ×
  Udp transcript fold reduction: 3.2 × fold
  Upp transcript increase: 2 ×
  accA transcript elevation: 1.3
  accC transcript elevation: 3.2
  accD transcript elevation: 1.4
  adk transcript fold elevation: 1.5 × fold
  dusB transcript fold elevation: ≥ 3 × fold
  infB transcript fold elevation: 3.1 × fold
  ispD transcript fold enhancement: 2.5 × fold
  other IPP/DMAPP synthesis gene transcripts (the others) fold enhancement: ~1.3 × fold
  prsA transcript elevation: < 2 ×
  pyrF transcript fold elevation: 3.7 × fold
  rlmH transcript fold elevation: at least 3.4 × fold
  rpoS transcript fold elevation: 3 × fold
  tadA transcript fold elevation: ≥ 3 × fold
  trmA transcript fold elevation: ≥ 3 × fold
  ycih transcript fold elevation: 3.3 × fold
  yqgf transcript fold elevation: at least 3.4 × fold
E coli K12 bacteria [4]; [7]
  dacA transcript elevation: 3.6 × fold
  ftsI transcript elevation: 1.6 ×
  idtB transcript elevation: 2 ×
  idtC transcript elevation: 5.2 ×
E coli K12 bacteria [4]; microarray and RNA seq
  FabA, FabG, FabZ, FabI, FabF gene transcripts: elevated
E coli K12 bacteria [4]; microarray, 20 genes
  tRNA synthetases average increase: 1.24 × fold
E coli K12 bacteria [4]; microarray, vs control
  CspA transcript fold increase: 3.1 × fold
  nusA transcript fold increase: 2.6 × fold
E coli K12 bacteria [4]; platform not given
  pgsA mRNA fold enhancement: 1.9 × fold
  plsB mRNA fold enhancement: 1.9 × fold
  pssA mRNA fold enhancement: 1.9 × fold
E coli K12 bacteria [4]; standard deviation 1.4
  average fold change for 10,110 transcripts: −0.1
E coli K12 bacteria [4]; standard deviation 2.44
  average fold change of 23 mRNAs with half-lives greater than 10 minutes: 1.2

— patent US11254958B1, “Metabolic engineering of E coli with thio-phosphate” (priority 2018, dated 2022)
